Reference: PubChem BioAssay (NCI)
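48-hour exposure; five concentrations; linearly interpolated endpoints. At the TGI there is no net growth.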

Legend:
Experiment in all cases: DTP human tumour cell line panel, 48 h
[1] = test system: 786-0 renal
[2] = test system: A498 renal
[3] = test system: A549 NSCLC
[4] = test system: ACHN renal
[5] = test system: BT-549 breast
[6] = test system: CAKI-1 renal
[7] = test system: CCRF-CEM leukemia
[8] = test system: COLO 205 colon
[9] = test system: DU-145 prostate
[10] = test system: EKVX NSCLC
[11] = test system: HCC-2998 colon
[12] = test system: HCT-116 colon
[13] = test system: HCT-15 colon
[14] = test system: HOP-62 NSCLC
[15] = test system: HOP-92 NSCLC
[16] = test system: HS 578T breast
[17] = test system: HT29 colon
[18] = test system: IGROV1 ovarian
[19] = test system: K-562 leukemia
[20] = test system: KM12 colon
[21] = test system: LOX IMVI melanoma
[22] = test system: M14 melanoma
[23] = test system: MALME-3M melanoma
[24] = test system: MCF7 breast
[25] = test system: MDA-MB-231 breast
[26] = test system: MDA-MB-435
[27] = test system: MDA-N
[28] = test system: MOLT-4 leukemia
[29] = test system: NCI-H226 lung
[30] = test system: NCI-H23 lung
[31] = test system: NCI-H460 lung
[32] = test system: NCI-H522 lung
[33] = test system: NCI/ADR-RES ovarian
[34] = test system: OVCAR-3 ovarian
[35] = test system: OVCAR-4 ovarian
[36] = test system: OVCAR-5 ovarian
[37] = test system: OVCAR-8 ovarian
[38] = test system: PC-3 prostate
[39] = test system: RPMI-8226 leukemia
[40] = test system: RXF 393 renal
[41] = test system: SF-268 CNS
[42] = test system: SF-295 CNS
[43] = test system: SK-MEL-2 melanoma
[44] = test system: SK-MEL-28 melanoma
[45] = test system: SK-MEL-5 melanoma
[46] = test system: SK-OV-3 ovarian
[47] = test system: SN12C renal
[48] = test system: SNB-19 CNS
[49] = test system: SNB-75 CNS
[50] = test system: SR leukemia
[51] = test system: SW-620 colon
[52] = test system: T-47D breast
[53] = test system: TK-10 renal
[54] = test system: U251 CNS
[55] = test system: UACC-257 melanoma
[56] = test system: UACC-62 melanoma
[57] = test system: UO-31 renal
[58] = test system: HL-60(TB) leukemia
[59] = test system: SF-539 CNS

## Cc1cccc2nc3cccc(C(=O)NCCC[N+](C)(CCCNC(=O)c4cccc5nc6cccc(C)c6nc45)Cc4ccc([N+](=O)[O-])n4C)c3nc12
[1]
  TGI: > 100 µM
[2]
  TGI: > 100 µM
[3]
  TGI: > 100 µM
[4]
  TGI: > 100 µM
[5]
  TGI: > 100 µM
[6]
  TGI: > 100 µM
[7]
  TGI: > 26.9 µM
[8]
  TGI: > 100 µM
[9]
  TGI: > 100 µM
[10]
  TGI: > 100 µM
[11]
  TGI: > 100 µM
[12]
  TGI: > 100 µM
[13]
  TGI: > 100 µM
[14]
  TGI: > 100 µM
[15]
  TGI: > 100 µM
[16]
  TGI: > 100 µM
[17]
  TGI: > 100 µM
[18]
  TGI: > 100 µM
[19]
  TGI: > 100 µM
[20]
  TGI: > 100 µM
[21]
  TGI: > 100 µM
[22]
  TGI: > 100 µM
[23]
  TGI: > 100 µM
[24]
  TGI: > 100 µM
[25]
  TGI: > 100 µM
[26]
  TGI: > 100 µM
[27]
  TGI: > 100 µM
[28]
  TGI: 26.2 µM
[29]
  TGI: > 100 µM
[30]
  TGI: > 100 µM
[31]
  TGI: > 100 µM
[32]
  TGI: > 100 µM
[33]
  TGI: > 100 µM
[34]
  TGI: > 100 µM
[35]
  TGI: > 100 µM
[36]
  TGI: > 100 µM
[37]
  TGI: > 100 µM
[38]
  TGI: > 100 µM
[39]
  TGI: > 100 µM
[40]
  TGI: > 100 µM
[41]
  TGI: > 100 µM
[42]
  TGI: > 100 µM
[43]
  TGI: > 100 µM
[44]
  TGI: > 100 µM
[45]
  TGI: > 100 µM
[46]
  TGI: > 100 µM
[47]
  TGI: > 100 µM
[48]
  TGI: > 100 µM
[49]
  TGI: > 100 µM
[50]
  TGI: > 100 µM
[51]
  TGI: > 100 µM
[52]
  TGI: > 100 µM
[53]
  TGI: > 100 µM
[54]
  TGI: > 100 µM
[55]
  TGI: > 100 µM
[56]
  TGI: > 100 µM
[57]
  TGI: > 100 µM

## COc1ccc(-c2cc(=O)c3c(O)cc(O)cc3o2)cc1OC
[1]
  TGI: > 100 µM
[2]
  TGI: 45.2 µM
[3]
  TGI: > 100 µM
[4]
  TGI: > 100 µM
[5]
  TGI: > 100 µM
[7]
  TGI: > 100 µM
[8]
  TGI: > 100 µM
[9]
  TGI: > 100 µM
[10]
  TGI: > 100 µM
[11]
  TGI: > 100 µM
[12]
  TGI: > 100 µM
[13]
  TGI: > 100 µM
[58]
  TGI: > 100 µM
[14]
  TGI: > 100 µM
[15]
  TGI: 16.4 µM
[16]
  TGI: > 100 µM
[17]
  TGI: > 100 µM
[18]
  TGI: > 100 µM
[19]
  TGI: > 100 µM
[20]
  TGI: > 100 µM
[21]
  TGI: > 100 µM
[22]
  TGI: > 100 µM
[23]
  TGI: > 100 µM
[24]
  TGI: > 100 µM
[25]
  TGI: > 100 µM
[26]
  TGI: > 100 µM
[27]
  TGI: > 100 µM
[28]
  TGI: > 100 µM
[29]
  TGI: > 100 µM
[30]
  TGI: > 100 µM
[31]
  TGI: > 100 µM
[32]
  TGI: 59.1 µM
[33]
  TGI: > 100 µM
[34]
  TGI: > 100 µM
[35]
  TGI: > 100 µM
[36]
  TGI: > 100 µM
[38]
  TGI: > 100 µM
[39]
  TGI: > 100 µM
[40]
  TGI: > 100 µM
[41]
  TGI: > 100 µM
[42]
  TGI: > 100 µM
[59]
  TGI: > 100 µM
[43]
  TGI: > 100 µM
[44]
  TGI: > 100 µM
[45]
  TGI: > 100 µM
[46]
  TGI: > 100 µM
[47]
  TGI: > 100 µM
[48]
  TGI: > 100 µM
[49]
  TGI: 37.1 µM
[50]
  TGI: 33.5 µM
[51]
  TGI: > 100 µM
[52]
  TGI: > 100 µM
[53]
  TGI: > 100 µM
[54]
  TGI: > 100 µM
[55]
  TGI: > 100 µM
[56]
  TGI: > 100 µM
[57]
  TGI: > 100 µM

## Cc1[nH]c(=O)nc2nc3ccc(Cl)cc3c(N(CCO)CCO)c12
[1]
  TGI: > 100 µM
[2]
  TGI: > 100 µM
[3]
  TGI: > 100 µM
[4]
  TGI: > 100 µM
[5]
  TGI: > 100 µM
[6]
  TGI: > 100 µM
[7]
  TGI: > 100 µM
[8]
  TGI: > 100 µM
[9]
  TGI: > 100 µM
[10]
  TGI: > 100 µM
[11]
  TGI: > 100 µM
[12]
  TGI: > 100 µM
[13]
  TGI: > 100 µM
[58]
  TGI: > 100 µM
[14]
  TGI: > 100 µM
[15]
  TGI: > 100 µM
[16]
  TGI: > 100 µM
[17]
  TGI: > 100 µM
[18]
  TGI: > 100 µM
[19]
  TGI: > 100 µM
[20]
  TGI: > 100 µM
[21]
  TGI: > 100 µM
[22]
  TGI: > 100 µM
[23]
  TGI: > 100 µM
[24]
  TGI: > 100 µM
[25]
  TGI: > 100 µM
[26]
  TGI: > 100 µM
[27]
  TGI: > 100 µM
[28]
  TGI: > 100 µM
[29]
  TGI: > 100 µM
[30]
  TGI: > 100 µM
[31]
  TGI: > 100 µM
[32]
  TGI: 48 µM
[33]
  TGI: > 100 µM
[34]
  TGI: > 100 µM
[35]
  TGI: > 100 µM
[36]
  TGI: > 100 µM
[37]
  TGI: > 100 µM
[38]
  TGI: > 100 µM
[39]
  TGI: > 100 µM
[40]
  TGI: > 100 µM
[41]
  TGI: > 100 µM
[42]
  TGI: > 100 µM
[59]
  TGI: > 100 µM
[43]
  TGI: > 100 µM
[44]
  TGI: > 100 µM
[45]
  TGI: > 100 µM
[46]
  TGI: > 100 µM
[47]
  TGI: > 100 µM
[48]
  TGI: > 100 µM
[50]
  TGI: > 100 µM
[51]
  TGI: > 100 µM
[52]
  TGI: > 100 µM
[53]
  TGI: > 100 µM
[54]
  TGI: > 100 µM
[55]
  TGI: > 100 µM
[56]
  TGI: > 100 µM
[57]
  TGI: > 100 µM
